Measured values: publication PMC10333884, “Large‐scale phosphomimetic screening identifies phospho‐modulated motif‐based protein interactions” (Molecular Systems Biology, 2023)
Non-standard residues stand in square brackets, D forms with d. Residues, ends and D or L forms follow the SMILES beside them. pS = N[C@@H](COP(=O)(O)O)C(=O)O

Tests used:
KPNA4 ARM Major = biological target: T1, KPNA4 ARM Major (Homo sapiens, UniProt O00629); assay: FP displacement assay, KPNA4 ARM major pocket; type: binding; conditions: for IC50: Fig 3E, KPNA4 ARM major, technical triplicates, read-out: IC50 values of displacement curves, with SEM; for Kd: major pocket probe FITC-MYC 5 nM, 50 mM sodium phosphate pH 7.4, room temperature, at least three technical replicates, read-out: KD values ± SEM
T1 construct: 60-487; GST (cleaved yes); made in house; host or cells: Escherichia coli BL21-Gold(DE3)
Method: (§1) FP experiments were performed as described previously (Kliche et al, [2021]). Shortly, in order to monitor the binding event, FITC‐labelled peptides were used (excitation 495 nm, emission: 535 nm) and the FP signal was recorded in mP on a SpectraMax iD5 Multi‐Mode Microplate Reader (Molecular Devices) by measuring the emitted light in two angels. The measurements were performed at room temperature and prepared in nonbinding black half area 96‐well microplates (Corning®; 50 μl/well). For measuring direct binding, that is saturation curves, a 1:1 dilution series of protein domain (25 μl/well) was generated in 50 mM sodium phosphate buffer pH 7.4 and the measurement performed with 5 nM FITC‐labelled peptide (25 μl/well). The buffer‐corrected values were subsequently plotted with PRISM and fitted to the quadratic equation (Gianni et al, [2005]).
(§2) The 1:1 dilution series in this experiment was performed with the unlabelled peptide in 50 mM sodium phosphate buffer pH 7.4, so that each well‐contained unlabelled peptide (25 μl) at a certain concentration and pre‐formed complex (25 μl). The KD values of this indirectly monitored binding event were calculated as described previously (Nikolovska‐Coleska et al, [2004]). All measurements were at least in technical triplicates as well as biological duplicates when indicated. An amplitude shift between repeat measurements in the displacement experiments was occasionally observed due to variations in the protein preparations. If that was the case, the “active” protein concentration was back‐calculated according to the quadratic equation from the saturation curves performed in parallel. By comparing the active protein concentrations in the complex between different protein preparations, the amplitude was normalised.

KPNA4 ARM minor = biological target: T2, KPNA4 ARM minor (Homo sapiens, UniProt O00629); assay: FP displacement assay, KPNA4 ARM minor pocket; type: binding; conditions: for IC50: Fig 3E, KPNA4 ARM minor, technical triplicates, read-out: IC50 values of displacement curves, with SEM; for Kd: minor pocket probe FITC-NCOR2 5 nM, 50 mM sodium phosphate pH 7.4, room temperature, at least three technical replicates, read-out: KD values ± SEM
T2 construct: 60-487; GST (cleaved yes); made in house; host or cells: Escherichia coli BL21-Gold(DE3)
Method: as §1, §2

KPNA4 ARM = assay: Phosphomimetic ProP-PD selection, KPNA4 ARM; type: binding, human; conditions: phosphomimetic enrichment score of the wild-type/phosphomimetic (E) pair at the phosphosite, PM_HD2 phage selection; same score in the major and minor pocket; P-value in brackets not taken

T1 sequence (O00629 60-487): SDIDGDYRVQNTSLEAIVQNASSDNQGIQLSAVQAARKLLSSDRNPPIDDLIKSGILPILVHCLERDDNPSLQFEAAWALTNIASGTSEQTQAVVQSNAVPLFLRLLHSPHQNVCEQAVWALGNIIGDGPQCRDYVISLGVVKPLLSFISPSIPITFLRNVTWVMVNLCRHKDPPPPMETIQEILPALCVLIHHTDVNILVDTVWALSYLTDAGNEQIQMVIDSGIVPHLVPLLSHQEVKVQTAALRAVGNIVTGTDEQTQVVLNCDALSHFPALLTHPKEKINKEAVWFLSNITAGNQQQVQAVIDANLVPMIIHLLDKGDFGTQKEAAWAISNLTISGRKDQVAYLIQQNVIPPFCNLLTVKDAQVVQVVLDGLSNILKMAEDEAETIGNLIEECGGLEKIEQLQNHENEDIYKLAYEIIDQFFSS
T2 sequence (O00629 60-487): as above

## CC(=O)N[C@@H](CC(N)=O)C(=O)N[C@@H](Cc1ccc(O)cc1)C(=O)N[C@@H](C)C(=O)N1CCC[C@H]1C(=O)N1CCC[C@H]1C(=O)N[C@H](C(=O)N[C@@H](CCCCN)C(=O)N[C@@H](CCCNC(=N)N)C(=O)N[C@@H](CCC(=O)O)C(=O)N[C@@H](CCCNC(=N)N)C(=O)N[C@H](C(=O)N[C@@H](CCC(=O)O)C(=O)N[C@@H](CO)C(=O)N[C@@H](CC(C)C)C(=O)N[C@H](C(=O)N[C@@H](CCC(N)=O)C(N)=O)[C@@H](C)O)[C@@H](C)O)C(C)C [RANBP3_114–129 E (p + 6)] (Ac-NYAPPVKRERTESLTQ-NH2)
KPNA4 ARM Major
  IC50: 1.3 ± 0.1 µM
  Kd: 0.14 ± 0.01 µM
KPNA4 ARM minor
  IC50: 385 ± 220 µM
  Kd: 80 ± 27 µM
KPNA4 ARM
  PES: −3.1 (0.077)

## CC(=O)N[C@@H](CC(N)=O)C(=O)N[C@@H](Cc1ccc(O)cc1)C(=O)N[C@@H](C)C(=O)N1CCC[C@H]1C(=O)N1CCC[C@H]1C(=O)N[C@H](C(=O)N[C@@H](CCCCN)C(=O)N[C@@H](CCCNC(=N)N)C(=O)N[C@@H](CCC(=O)O)C(=O)N[C@@H](CCCNC(=N)N)C(=O)N[C@H](C(=O)N[C@@H](COP(=O)(O)O)C(=O)N[C@@H](CO)C(=O)N[C@@H](CC(C)C)C(=O)N[C@H](C(=O)N[C@@H](CCC(N)=O)C(N)=O)[C@@H](C)O)[C@@H](C)O)C(C)C [RANBP3_114–129 pS (p + 6)] (Ac-NYAPPVKRERT[pS]SLTQ-NH2)
KPNA4 ARM Major
  IC50: 2 ± 0.5 µM
  Kd: 0.22 ± 0.03 µM
KPNA4 ARM minor
  IC50: 98 ± 7 µM
  Kd: 20 ± 1 µM
